Molecular target: T1, SIRT1 (Homo sapiens, UniProt Q96EB6)
T1 sequence (Q96EB6 1-747): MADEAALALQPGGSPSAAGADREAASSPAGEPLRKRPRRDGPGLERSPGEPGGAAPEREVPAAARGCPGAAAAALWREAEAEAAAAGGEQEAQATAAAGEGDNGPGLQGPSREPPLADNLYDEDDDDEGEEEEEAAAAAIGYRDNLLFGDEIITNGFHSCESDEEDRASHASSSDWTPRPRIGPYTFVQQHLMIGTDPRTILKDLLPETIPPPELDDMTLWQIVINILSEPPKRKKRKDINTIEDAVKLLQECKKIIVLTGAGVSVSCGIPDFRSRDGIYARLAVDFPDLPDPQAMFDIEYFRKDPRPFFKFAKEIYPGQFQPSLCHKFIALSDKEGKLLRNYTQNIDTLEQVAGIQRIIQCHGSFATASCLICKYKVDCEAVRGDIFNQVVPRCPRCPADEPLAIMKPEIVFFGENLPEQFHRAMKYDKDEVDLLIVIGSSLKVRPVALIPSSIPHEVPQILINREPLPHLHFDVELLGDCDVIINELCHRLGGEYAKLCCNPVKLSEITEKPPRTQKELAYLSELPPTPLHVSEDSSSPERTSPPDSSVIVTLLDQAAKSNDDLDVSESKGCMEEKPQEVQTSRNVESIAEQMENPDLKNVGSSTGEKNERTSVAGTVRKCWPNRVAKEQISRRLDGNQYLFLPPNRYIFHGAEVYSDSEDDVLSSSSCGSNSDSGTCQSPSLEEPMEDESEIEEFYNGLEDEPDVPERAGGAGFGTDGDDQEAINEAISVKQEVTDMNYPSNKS
Experiment: Trp mass spectrometry assay (SIRT1 activation)
Assay type: biochemical
Settings: Trp peptide substrate; for Tryp AVG EC1.5 (μM): concentration of test compound that results in 150% activation of SIRT1; for Emax: percent maximum fold activation of SIRT1, read-out: Tryp % Fold Act
Outline: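 Activation is expressed as EC1.5, the concentration raising activity 50% above DMSO control, and as maximum percent of control. Mass-spec readout was OAADPR or deacetylated Trp peptide after a formic-acid-quenched 25-min, 25 °C reaction: 10 nM bacterially expressed His-SIRT1, 0.5 μM acetyl-p53-derived peptide, 120 μM NAD+, pH 7.5 HEPES with […].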

| Tryp AVG EC1.5 (μM) | Emax | Compound |
| --- | --- | --- |
| A (EC1.5<1 μM) | ≥ 150% | O=C(Nc1cnccn1)N1c2nc(-c3ccc(Cl)c(Cl)c3)ccc2N2CC[C@H]1C2 [Example 461] |
| B (EC1.5 1-25 μM) | ≥ 150% | O=C(Nc1cnccn1)N1c2nc(-c3ccnc(N4CC[C@@H](F)C4)c3)ccc2N2CC[C@H]1C2 [Example 462] |
| A (EC1.5<1 μM) | ≥ 150% | O=C(Nc1ccc(F)cn1)N1c2nc(-c3ccnc(N4CC[C@H](F)C4)c3)ccc2N2CC[C@H]1C2 [Example 463] |
| B (EC1.5 1-25 μM) | ≥ 150% | O=C(Nc1cncc(F)c1)N1c2nc(-c3ccnc(N4CC[C@@H](F)C4)c3)ccc2N2CC[C@H]1C2 [Example 464] |
| B (EC1.5 1-25 μM) | ≥ 150% | Cc1ccc(-c2ccc3c(n2)N(C(=O)Nc2ccccn2)[C@H]2CCCN3C2)cn1 [Example 465] |
| B (EC1.5 1-25 μM) | ≥ 150% | Cc1nc(NC(=O)N2c3nc(-c4cccnc4)ccc3N3CCC[C@H]2C3)sc1C [Example 466] |
| B (EC1.5 1-25 μM) | ≥ 150% | Cc1ccc(-c2ccc3c(n2)N(C(=O)Nc2cccnn2)[C@H]2CCCN3C2)cn1 [Example 467] |
| B (EC1.5 1-25 μM) | ≥ 150% | Cc1cc(-c2ccc3c(n2)N(C(=O)Nc2ccncn2)[C@H]2CCN3C2)ccn1 [Example 468] |
| C (EC1.5>25 μM) | < 150% | O=C(Nc1cncc(F)c1)N1c2nc(N3CC[C@H](F)C3)ccc2S(=O)(=O)N2CC[C@H]1C2 [Example 469] |
| A (EC1.5<1 μM) | ≥ 150% | O=C(Nc1ccccn1)N1c2nc(-c3cncc(F)c3)ccc2N2CCC[C@H]1C2 [Example 470] |
| B (EC1.5 1-25 μM) | ≥ 150% | Cc1nc(NC(=O)N2c3nc(-c4cncc(F)c4)ccc3N3CCC[C@H]2C3)sc1C [Example 471] |
| A (EC1.5<1 μM) | ≥ 150% | O=C(Nc1cnccn1)N1c2nc(-c3cccc(C(F)(F)F)c3)ccc2N2CCC1CC2 [Example 472] |
| A (EC1.5<1 μM) | ≥ 150% | O=C(Nc1cccc(-c2cnco2)c1)N1c2nc(-c3cccc(C(F)(F)F)c3)ccc2N2CCC1CC2 [Example 473] |
| A (EC1.5<1 μM) | ≥ 150% | O=C(Nc1ccc(F)cn1)N1c2nc(-c3ccnc(N4CC[C@@H](F)C4)c3)ccc2N2CC[C@H]1C2 [Example 474] |
| A (EC1.5<1 μM) | ≥ 150% | O=C(Nc1cncc(F)c1)N1c2nc(-c3ccnc(N4CC[C@H](F)C4)c3)ccc2N2CC[C@H]1C2 [Example 475] |
| B (EC1.5 1-25 μM) | ≥ 150% | Cc1nc(NC(=O)N2c3nc(-c4ccccc4C#N)ccc3N3CCC[C@H]2C3)sc1C [Example 476] |
| B (EC1.5 1-25 μM) | ≥ 150% | Cc1ccc(-c2ccc3c(n2)N(C(=O)Nc2cncc(F)c2)[C@H]2CCCN3C2)cn1 [Example 477] |
| B (EC1.5 1-25 μM) | ≥ 150% | COc1cc(NC(=O)N2c3nc(-c4ccc(C)nc4)ccc3N3CCC[C@H]2C3)ncn1 [Example 478] |
| B (EC1.5 1-25 μM) | ≥ 150% | Cc1ccc(-c2ccc3c(n2)N(C(=O)Nc2ccncn2)[C@H]2CCCN3C2)cn1 [Example 479] |
| A (EC1.5<1 μM) | ≥ 150% | Cc1cc(-c2ccc3c(n2)N(C(=O)Nc2cccc(-c4cnco4)c2)[C@H]2CCN3C2)ccn1 [Example 480] |
| A (EC1.5<1 μM) | ≥ 150% | Cc1cc(-c2ccc3c(n2)N(C(=O)Nc2nc(C)c(C)s2)[C@H]2CCN3C2)ccn1 [Example 481] |
| B (EC1.5 1-25 μM) | ≥ 150% | Cc1cc(-c2ccc3c(n2)N(C(=O)Nc2cnn(C)c2)[C@H]2CCN3C2)ccn1 [Example 482] |
| A (EC1.5<1 μM) | ≥ 150% | Cc1cc(-c2ccc3c(n2)N(C(=O)Nc2ccc4cn(C)cc4c2)[C@H]2CCN3C2)ccn1 [Example 483] |
| C (EC1.5>25 μM) | < 150% | CN1CCCN(c2ccc3c(n2)N(C(=O)Nc2ccncn2)[C@H]2CCCN3C2)CC1 [Example 484] |
| A (EC1.5<1 μM) | ≥ 150% | O=C(Nc1cccnc1)N1c2nc(-c3cccc(C(F)(F)F)c3)ccc2N2CCC1CC2 [Example 485] |

| Tryp AVG EC1.5 (μM) | Emax | Compound |
| --- | --- | --- |
| C (EC1.5>25 μM) | ≥ 150% | Cc1nn(C)c(C)c1-c1ccc2c(n1)N(C(=O)Nc1cccnc1)[C@H]1CCN2C1 [Example 486] |
| B (EC1.5 1-25 μM) | ≥ 150% | CCCn1cc(-c2ccc3c(n2)N(C(=O)Nc2cccnc2)[C@H]2CCN3C2)cn1 [Example 487] |
| B (EC1.5 1-25 μM) | ≥ 150% | Cc1nn(C)cc1-c1ccc2c(n1)N(C(=O)Nc1cccnc1)[C@H]1CCN2C1 [Example 488] |
| B (EC1.5 1-25 μM) | ≥ 150% | Cc1c(-c2ccc3c(n2)N(C(=O)Nc2cccnc2)[C@H]2CCN3C2)cnn1C [Example 489] |
| B (EC1.5 1-25 μM) | ≥ 150% | Cc1[nH]ncc1-c1ccc2c(n1)N(C(=O)Nc1cccnc1)[C@H]1CCN2C1 [Example 490] |
| A (EC1.5<1 μM) | ≥ 150% | O=C(Nc1ccncn1)N1c2nc(N3CCCN(CC(F)(F)F)CC3)ccc2N2CCC[C@H]1C2 [Example 491] |
| A (EC1.5<1 μM) | ≥ 150% | O=C(Nc1cncc(F)c1)N1c2nc(-c3cccc(C(F)(F)F)c3)ccc2N2CCC1CC2 [Example 492] |
| B (EC1.5 1-25 μM) | ≥ 150% | O=C(Nc1cccnc1)N1c2nc(-c3cc[nH]n3)ccc2N2CC[C@H]1C2 [Example 493] |
| B (EC1.5 1-25 μM) | ≥ 150% | CC(C)n1cc(-c2ccc3c(n2)N(C(=O)Nc2cccnc2)[C@H]2CCN3C2)cn1 [Example 494] |
| B (EC1.5 1-25 μM) | ≥ 150% | Cc1nc(C)c(-c2ccc3c(n2)N(C(=O)Nc2cccnc2)[C@H]2CCN3C2)s1 [Example 495] |
| A (EC1.5<1 μM) | ≥ 150% | O=C(Nc1cccnc1)N1c2nc(-c3cccc(Cl)c3)ccc2N2CCC1CC2 [Example 496] |
| A (EC1.5<1 μM) | ≥ 150% | O=C(Nc1cccc(-c2cnco2)c1)N1c2nc(-c3cccc(Cl)c3)ccc2N2CCC1CC2 [Example 497] |
| A (EC1.5<1 μM) | ≥ 150% | Cc1cc(-c2ccc3c(n2)N(C(=O)Nc2cccnc2)[C@H]2CCN3C2)ccn1 [Example 498] |
| A (EC1.5<1 μM) | ≥ 150% | COc1cncc(NC(=O)N2c3nc(-c4ccnc(C)c4)ccc3N3CC[C@H]2C3)n1 [Example 499] |
| A (EC1.5<1 μM) | ≥ 150% | COc1cnc(NC(=O)N2c3nc(-c4ccnc(C)c4)ccc3N3CC[C@H]2C3)cn1 [Example 500] |
| B (EC1.5 1-25 μM) | ≥ 150% | COc1nccnc1NC(=O)N1c2nc(-c3ccnc(C)c3)ccc2N2CC[C@H]1C2 [Example 501] |
| A (EC1.5<1 μM) | ≥ 150% | Cc1cc(-c2ccc3c(n2)N(C(=O)Nc2ccc4c(cnn4C)c2)[C@H]2CCN3C2)ccn1 [Example 502] |
| A (EC1.5<1 μM) | ≥ 150% | Cc1cc(-c2ccc3c(n2)N(C(=O)Nc2cncc(C)n2)[C@H]2CCN3C2)ccn1 [Example 503] |
| A (EC1.5<1 μM) | ≥ 150% | Cc1cncc(-c2ccc3c(n2)N(C(=O)Nc2ccccn2)[C@H]2CCCN3C2)c1 [Example 504] |
| C (EC1.5>25 μM) | < 150% | Cc1ccncc1-c1ccc2c(n1)N(C(=O)Nc1ccccn1)[C@H]1CCCN2C1 [Example 505] |
| A (EC1.5<1 μM) | ≥ 150% | Cc1ccc(-c2ccc3c(n2)N(C(=O)Nc2nc(C)c(C)s2)[C@H]2CCCN3C2)cn1 [Example 506] |
| A (EC1.5<1 μM) | ≥ 150% | Cc1cncc(-c2ccc3c(n2)N(C(=O)Nc2nc(C)c(C)s2)[C@H]2CCCN3C2)c1 [Example 507] |
| C (EC1.5>25 μM) | ≥ 150% | Cc1ccncc1-c1ccc2c(n1)N(C(=O)Nc1nc(C)c(C)s1)[C@H]1CCCN2C1 [Example 508] |
| A (EC1.5<1 μM) | ≥ 150% | Cc1cncc(-c2ccc3c(n2)N(C(=O)Nc2cncc(F)c2)[C@H]2CCCN3C2)c1 [Example 509] |
| B (EC1.5 1-25 μM) | ≥ 150% | Cc1ccncc1-c1ccc2c(n1)N(C(=O)Nc1cncc(F)c1)[C@H]1CCCN2C1 [Example 510] |

Source: patent publication US9765075B2, “Substituted bridged urea analogs as sirtuin modulators” (GLAXOSMITHKLINE LLC, priority 2013, dated 2017)
